One compound from patent US20060234378A1, “Molecular switch regulating neurogenesis” (The Salk Institute For Biological Studies, priority 2005, published 2006) can be followed below.

This assay concerns NeuroD1 and NeuroD2 genes. Description: RT PCR of NeuroD genes after TSA and 5AzaC treatment of adult hippocampal neural stem cells. It counts as cell-based, rat. The following applies: 5 nM for 2 days. As for the experimental part: To determine whether either of these mechanisms contributed to repression of the NeuroD promoter, adult hippocampal neural stem cells were treated with either an HDAC inhibitor, trichostatin A (TSA), or with the de-methylation reagent 5′-aza-cytidine (5AzaC). Total RNA was extracted from cells that had been treated with 5 nM TSA for 2 days and with 3 μM 5AzaC for 4 days. RT PCR analysis was performed with specific primers for NeuroD1 (SEQ ID NOs:7 and 8) and NeuroD2 (SEQ ID NOs:9 and 10) genes and a control gene, GAPDH (SEQ ID NOs:3 and 4).

As for `CC(/C=C/C(=O)NO)=C\[C@@H](C)C(=O)c1ccc(N(C)C)cc1` [TSA, trichostatin A], the “expression of GAPDH (control gene)” value is listed as “no effects”. Where the note is “compared with untreated progenitor cultures”, the “endogenous expression levels of mRNAs of NeuroD1 and NeuroD2” value is reported as “increased”.
